For experiment [1], the system named is A549. Nature of the experiment: Antiproliferative activity against human A549 cells assessed as inhibition of cell growth at 10 uM measured after 24 hrs by CCK8 assay relative to control. The class given is functional. The note with it: A549, 24 h, read-out: GI.
In experiment [2] the test system is A549. Nature of the experiment: Antiproliferative activity against human A549 cells measured after 24 hrs by CCK8 assay. The class given is functional, cell-based. The conditions noted are these: A549, 24 h. For orientation: Tetrazolium assays rely on reduction of a dye to a coloured formazan, in cell work by metabolically active cells.
The test system of experiment [3] is MCF7. Put plainly: Antiproliferative activity against human MCF7 cells assessed as inhibition of cell growth at 10 uM measured after 24 hrs by CCK8 assay relative to control. The format is functional. The note with it: MCF7, 24 h, read-out: GI.
In experiment [4] the test system is MCF7. Nature of the experiment: Antiproliferative activity against human MCF7 cells measured after 24 hrs by CCK8 assay. The format is functional, cell-based. The conditions noted are these: MCF7, 24 h.
In experiment [5] the test system is HCT-116. Put plainly: Antiproliferative activity against human HCT116 cells assessed as inhibition of cell growth at 10 uM measured after 24 hrs by CCK8 assay relative to control. The format is functional. The conditions noted are these: HCT-116, 24 h, read-out: GI.
For experiment [6], the system named is HCT-116. Nature of the experiment: Antiproliferative activity against human HCT116 cells measured after 24 hrs by CCK8 assay. The class given is functional, cell-based. The conditions noted are these: HCT-116, 24 h.
Experiment [7] deals with E3 ubiquitin-protein ligase Mdm2 (Homo sapiens, UniProt Q00987). Put plainly: Inhibition of PMDM6-F probe binding to MDM2 (1 to 118 residues) (unknown origin) preincubated for 30 mins followed by PMDM6-F addition and measured after 1 hr fluorescence polarization assay. (In general: Polarisation of emitted light reports the rotation of a fluorescent probe.)
Sequence of E3 ubiquitin-protein ligase Mdm2 (Q00987 whole entry, the tested form may be a part): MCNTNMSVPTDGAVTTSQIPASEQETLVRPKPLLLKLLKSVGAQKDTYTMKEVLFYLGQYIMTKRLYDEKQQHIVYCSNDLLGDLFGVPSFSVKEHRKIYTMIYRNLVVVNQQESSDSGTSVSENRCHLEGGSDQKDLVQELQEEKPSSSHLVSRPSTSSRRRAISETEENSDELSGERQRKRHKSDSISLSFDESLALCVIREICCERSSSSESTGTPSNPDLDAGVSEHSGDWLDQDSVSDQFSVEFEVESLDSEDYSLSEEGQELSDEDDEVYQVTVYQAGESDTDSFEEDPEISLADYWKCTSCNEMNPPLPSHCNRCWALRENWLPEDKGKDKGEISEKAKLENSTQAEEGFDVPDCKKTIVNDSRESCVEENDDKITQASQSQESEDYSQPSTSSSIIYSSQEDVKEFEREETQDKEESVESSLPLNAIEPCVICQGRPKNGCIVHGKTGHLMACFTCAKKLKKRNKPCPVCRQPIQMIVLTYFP
The subject of experiment [8] is HUVEC. Put plainly: Cytotoxicity against HUVEC measured after 24 hrs by CCK8 assay. The class given is cell-based. The conditions noted are these: Homo sapiens.
Experiment [9] concerns A549. Nature of the experiment: Cell cycle arrest in human A549 cells assessed as increase in accumulation at G0/G1-phase measured after 24 hrs by DNA-staining solution based flow cytometry. The format is functional. (In general: In flow cytometry, cells or beads pass a laser one at a time.)
In experiment [10] the test system is A549. Put plainly: Cell cycle arrest in human A549 cells assessed as decrease in accumulation at S-phase measured after 24 hrs by DNA-staining solution based flow cytometry. The format is functional.
In experiment [11] the test system is A549. Nature of the experiment: Cell cycle arrest in human A549 cells assessed as decrease in accumulation at G2/M-phase measured after 24 hrs by DNA-staining solution based flow cytometry. The format is functional.
In experiment [12] the test system is A549. Nature of the experiment: cells. The conditions noted are these: Homo sapiens, A549, 48 h, read-out: Activity.
Description: Induction of apoptosis in human A549 cells assessed as viable cells at 5 uM measured after 48 hrs by annexin V-FITC/propidium iodide staining based flow cytometry (Rvb = 92.9%)
Experiment [13] relates to A549. Put plainly: cells. The note with it: Homo sapiens, A549, 48 h, read-out: Activity. The source holds these as a separate data set.
Description: Induction of apoptosis in human A549 cells assessed as viable cells at 10 uM measured after 48 hrs by annexin V-FITC/propidium iodide staining based flow cytometry (Rvb = 92.9%)

pIC50, pKi: −log10 of the molar value.

What is called pIC50 is −log10 of the IC50, conventionally taken in molar units. High values mean a low IC50, low ones a high IC50. For orientation: pKi means −log10 of the Ki, conventionally taken in molar units. Regarding `O=C(C1=CC[C@@H](c2ccccc2)[C@@]2(S1)C(=O)Nc1cccc(Br)c12)c1ccco1`, the inhibition of growth at 10 µM in [1] is 87.1%; in experiment [3] it was 92.8%; in [5] it was 92.1%. The figures for the pIC50 in experiment [2], in experiment [4] and in [6] were 5.35, 5.32 and 5.72, respectively. Further, the pKi in experiment [7] was 4.36.
`O=C(C1=CC[C@@H](c2ccc(F)cc2)[C@@]2(S1)C(=O)Nc1ccccc12)c1ccccc1`: the inhibition of growth at 10 µM in experiment [1] stood at 72.3%; in experiment [3] it was 58.8%; in [5], 91.1%. In addition, the pIC50 was 5.20 in [2], 4.85 in experiment [4] and 5.70 in experiment [6].
In the case of `O=C(C1=CC[C@@H](c2ccccc2)[C@@]2(S1)C(=O)Nc1cc(F)ccc12)c1ccccc1`, the inhibition of growth at 10 µM in experiment [1] was 66%; in experiment [3] it was 23.9%; in experiment [5], 45.1%. In [2], this compound had a pIC50 of 5.21.
For `O=C(C1=CC[C@@H](c2ccccc2)[C@@]2(S1)C(=O)Nc1cccc(Cl)c12)c1ccccc1`, the inhibition of growth at 10 µM in experiment [1] is 65.4%; in experiment [3] it was 43.9%; in experiment [5], 48.8%. Besides, the pIC50 in [2] and in experiment [6] was 5.00 in each case.
`COc1ccc(C(=O)C2=CC[C@@H](c3ccccc3)[C@@]3(S2)C(=O)Nc2cccc(Br)c23)cc1`: the inhibition of growth at 10 µM in experiment [1] was found to be 74.3%; in experiment [3], 36.9%; in [5] it was 68.4%. Besides, the negative logarithm of the IC50 (pIC50) is 5.22 in experiment [2] and 5.08 in [6].
On to `O=C(C1=CC[C@@H](c2ccccc2)[C@@]2(S1)C(=O)Nc1cccc(Br)c12)c1ccc(Br)cc1`, for which the inhibition of growth at 10 µM was found to be 93.1% in experiment [1], 77.7% in experiment [3] and 67.3% in experiment [5]. The negative logarithm of the IC50 (pIC50) in experiment [2] is 5.48; in [4] it was 5.09; in experiment [6] it was 5.59.
Turning to `COc1ccc(C(=O)C2=CC[C@@H](c3ccc(Br)cc3)[C@@]3(S2)C(=O)Nc2cccc(Br)c23)cc1`, the results for the inhibition of growth at 10 µM in experiment [1], in [3] and in experiment [5] were 19%, 18.5% and 10.8%, respectively.
Consider `CC[C@@H]1CC=C(C(=O)c2ccc(OC)cc2)S[C@@]12C(=O)Nc1cccc(Br)c12`, for which the inhibition of growth at 10 µM in experiment [1] amounted to 46.9%; in [3], 72.9%; in experiment [5] it was 70.8%. Besides, the negative-log IC50 (pIC50) was 4.99 in experiment [2] and 4.88 in [4].
Consider `O=C(C1=CC[C@@H](c2ccccc2)[C@@]2(S1)C(=O)Nc1cccc(Br)c12)c1ccccc1`, for which the inhibition of growth at 10 µM in [1] was determined as 78.5%; in experiment [3], 24.3%; in [5] it was 45%. In experiment [2], this compound showed a negative logarithm of the IC50 (pIC50) of 5.51.
For `O=C(C1=CC[C@@H](c2ccc(F)cc2)[C@@]2(S1)C(=O)Nc1cccc(Br)c12)c1ccccc1`, the inhibition of growth at 10 µM came to 84.4% in experiment [1], 21.9% in experiment [3] and 44.1% in [5]. Besides, the negative-log IC50 (pIC50) in [2] is 5.31.
In the case of `O=C(C1=CC[C@@H](c2ccccc2)[C@@]2(S1)C(=O)Nc1ccccc12)c1ccccc1`, the inhibition of growth at 10 µM in [1] was 57.6%; in [3], 51.7%; in [5], 87.6%. Moreover, the values for the pIC50 in [2], in experiment [4] and in experiment [6] were 5.20, 4.97 and 5.03, respectively.
`O=C(C1=CC[C@@H](c2ccc(Br)cc2)[C@@]2(S1)C(=O)Nc1ccccc12)c1ccccc1`: the inhibition of growth at 10 µM in experiment [1] came out at 75.1%; in experiment [3], 69.4%; in [5] it was 91.9%. Moreover, the pIC50 in [2] is 5.68; in [4], 5.17; in [6], 5.77; in experiment [8] it was 5.39. The compound further gave a negative-log Ki (pKi) in experiment [7] of 4.70. Also, the Activity entry in experiment [9], in experiment [10] and in experiment [11] was “Dose-dependent effect” throughout. In [12], the viability at 5 µM worked out at 35.7%. The viability at 10 µM in experiment [13] was 29%.
For `COc1ccc(C(=O)C2=CC[C@@H](c3ccc(OC)cc3)[C@@]3(S2)C(=O)Nc2cccc(Br)c23)cc1`, the inhibition of growth at 10 µM was found to be 40.9% in experiment [1], 25.9% in experiment [3] and 14.3% in experiment [5].
In the case of `COc1ccc(C2=N[C@H](c3ccc(Cl)cc3)[C@H](c3ccc(Cl)cc3)N2C(=O)N2CCNC(=O)C2)c(OC(C)C)c1`, the inhibition of growth at 10 µM amounted to 47% in [1], 32.8% in experiment [3] and 64.4% in [5]. Further, the negative logarithm of the IC50 (pIC50) in experiment [2] is 5.62; in [4], 4.92. Moreover, the Activity result in experiment [9] and in experiment [10] was “Dose-dependent effect” throughout. The viability at 5 µM in experiment [12] came to 45.9%. Also, in experiment [13], the viability at 10 µM was found to be 44.1%.
`O=C(C1=CC[C@@H](c2ccccc2)[C@@]2(S1)C(=O)Nc1ccc(F)cc12)c1ccccc1`: the inhibition of growth at 10 µM is 74.2% in [1], 63.9% in experiment [3] and 88.4% in experiment [5]. Besides, the negative logarithm of the IC50 (pIC50) was 5.37 in [2], 5.26 in experiment [4] and 5.00 in [6].
For `CCC[C@@H]1CC=C(C(=O)c2ccc(OC)cc2)S[C@@]12C(=O)Nc1cccc(Br)c12`, the results for the inhibition of growth at 10 µM in [1], in experiment [3] and in [5] were 44%, 19.8% and 22.7%, respectively.
In the case of `O=C(C1=CC[C@@H](c2ccc(Cl)cc2)[C@@]2(S1)C(=O)Nc1ccccc12)c1ccccc1`, the figures for the inhibition of growth at 10 µM in experiment [1], in [3] and in experiment [5] were 72.5%, 72.5% and 89.1%, respectively. Also, the pIC50 in experiment [2] was 5.41; in [4], 5.07; in experiment [6], 5.55.
Consider `O=C(C1=CC[C@@H](c2ccccc2)[C@@]2(S1)C(=O)Nc1cc(Br)ccc12)c1ccccc1`, for which the inhibition of growth at 10 µM was found to be 67.6% in experiment [1], 54.5% in experiment [3] and 80% in [5]. The pIC50 is 5.32 in [2], 5.00 in [4] and 5.02 in experiment [6].
In the case of `O=C(C1=CC[C@@H](c2ccc(Br)cc2)[C@@]2(S1)C(=O)Nc1cccc(Br)c12)c1ccccc1`, the inhibition of growth at 10 µM in experiment [1] worked out at 88.1%; in [3], 52.7%; in experiment [5] it was 86%. In addition, the negative-log IC50 (pIC50) in [2] is 5.82; in experiment [4], 5.06; in [6], 5.23.
As for `COc1ccc(C(=O)C2=CC[C@@H](c3ccc([N+](=O)[O-])cc3)[C@@]3(S2)C(=O)Nc2cccc(Br)c23)cc1`, the inhibition of growth at 10 µM in experiment [1] turned out to be 73.9%; in experiment [3], 28.1%; in experiment [5], 48.1%. Besides, the pIC50 in [2] is 4.86.
